In assay [1] the test system is arachidonic acid release from zymosan stimulated macrophages. The assay can be described thus: Test A: Inhibition of Arachidonic Acid Release from Zymosan Stimulated Macrophages. It counts as cell-based, mice (female MF1). Conditions: Mus musculus, Macrophage; peritoneal macrophages labelled with [3H]-arachidonic acid, zymosan stimulus, 5 h; tested at 100, 50, 20, 10, 5 and 1 μM. The method, then: Test A was carried out in the following way:
Inhibition of Arachidonic Acid Release from Zymosan Stimulated Macrophages
Female MF1 mice (weighing 20 to 25 g) were killed using a rising concentration of CO2. The mice were laid on their backs and the abdomens wiped with 70% alcohol. The skin was pulled back, exposing the peritoneal wall. Medium A (5 ml) (see below) was injected into the peritoneal cavity of each mouse followed by approximately 1 ml of air using a 20 ml syringe and a 21 G×40 mm needle in order to form a suspension of macrophage cells. The medium and cells were then removed using a 19 G×40 mm needle. The resulting suspension was returned to a sterile beaker kept on ice. The extracts from all the mice were pooled and this pooled cell suspension was counted using a Coulter counter and adjusted to a final cell count of 1-1.3×10^6 cells/ml prior to labelling with [^3 H]-arachidonic acid. Typically five mice provided sufficient cells for each multiwell plate.
Sufficient [^3 H]-arachidonic acid in ethanol to give a final concentration of 1.6 μCi/ml (equivalent to 40 μCi/plate) was blown to dryness under nitrogen. The arachidonic acid was then resuspended in 1 or 2 ml of the cell suspension which was then mixed with the remainder of the cell suspension in a centrifuge bottle.
The following day, non-adherent cells were removed by washing 3 times with sterile phosphate buffered saline (PBS). The adherent peritoneal macrophages were then cultured for a further 24 hours in the presence or absence of drugs, in medium B (see below) at 37° in a 5% CO2 atmosphere in order to measure the effects of drugs on the spontaneous release of arachidonic acid in the absence of stimulus. After this incubation, supernatants were removed to give medium 1 and stored in sealed multi-well plates at 4° C. prior to scintillation counting. […] The supernatants were replaced by fresh medium C containing fresh drug and a stimulus. Three drugs were tested at six concentrations (100, 50, 20, 10, 5 and 1 μM) in replicates of four on each plate. The other wells contained controls consisting of a positive control (e.g. dexamethasone), medium (B) only and medium C only.
Incubation was then continued for a further 5 hours, whereupon the supernatants were collected to give medium 2 and the adherent cells washed with PBS. The cells were then lysed with 100 μl of 0.1% TRITON® X100 in a 0.1% solution of bovine serum albumin in 0.9% saline and mechanically disrupted to give cell lysates. These supernatants (medium 2) and cell lysates (Cells) were also stored in sealed multi-well plates at 4° C. prior to scintillation counting. 200 μl aliquots of media, or 100 μl aliquots of cells were counted using 2 ml of OPTIPHASE "HIGH SAFE" (Trademark of LKB) as scintillant.
The percentage of arachidonic acid released was calculated using the mean values for each group of 4 wells in the following equation. [formula]
The percentage inhibition of arachidonic acid release caused by a drug may then be calculated using the following equation. [formula]
Medium A (for peritoneal lavage)
This mixture was transferred to sterile flask and made up to 400 ml with sterile water.
Medium B (for cell culture)
This mixture was transferred to a sterile beaker and made up to 650 ml with sterile water.
Medium C=medium B+stimulant (zymosan)
The zymosan stimulant was prepared as follows:--zymosan (200 mg) (supplied by Sigma) was added to PBS (20 ml). The mixture was boiled for 30 minutes and the volume restored to 20 ml with water. The zymosan was harvested by centrifugation at 500×g for 5 minutes, washed twice by resuspension in PBS (10 ml) and centrifugation. After the final separation, the zymosan was resuspended in 20 ml PBS and stored as 1 ml aliquots at -20° C.

The test system of assay [2] is carrageenan-induced paw oedema. The assay can be described thus: Test B: Carrageenan-induced rat paw oedema test. Type of assay: in vivo. Particulars: inhibition of paw oedema, 100 mg/kg oral, 3 h after carrageenan. The method, then: Test B was carried out in the following way:
Carrageenan-induced rat paw oedema test
Female rats, weight range 125-150 g were fasted overnight. One of the hind legs of each animal was marked with a line at the connection between the cuboid/navicular and calcaneus/talus bones. Groups of six rats were orally dosed at 10 ml/kg, in random order, with a given dose of the test compound given as a solution or suspension in 10% (w/v) aqueous acacia solution.
One hour after dosing, 0.1 ml of 1% (w/v) sterile carrageenan λ in normal saline was injected deeply into the plantar surface of the marked hind foot of each rat. The volume of the foot (up to the marked line) was measured immediately after injection using duplicate water displacement readings. Three hours after injection the foot volume was measured again and the percentage increase in foot volume relative to the initial reading was calculated.
The increase in foot volume (i.e. the degree of oedema) in drug treated animals when compared with that in the drug untreated control gave the degree of inhibition of paw oedema by the drug.
Compounds were considered to be active in this test if they produced a statistically significant (typically 20% or greater) inhibition of paw oedema in at least two out of three tests after oral dosing at 100 mg/kg. Statistical significance was assessed using the Student's t test for single dose studies and Dunnett's test for multiple dose studies. More advantageous compounds were active in both Tests A and B,
(In general: The carrageenan paw model is a standard test of acute inflammation.)

Assay [3] deals with carrageenan-induced pleurisy. The assay can be described thus: Test C: Carrageenan-induced pleurisy in rats. Conditions: 24 h and 48 h, leukocytes harvested at 72 h; for activity in Test C at 10 mg/kg or less: 10 mg/kg or less p.o. at challenge. It counts as in vivo, rat. As to the method: The most advantageous compounds of formula I were active in Test A and also in the following test. Carrageenan-induced pleurisy in rats was carried out as described by Ackerman et al. J. Pharmacol. Exp. Therap. 1980, 215, 588-595. Migrating leukocytes were harvested by lavage of the thoracic cavity 72 h after injection of 0.3 ml 1% λ-carrageenan in sterile isotonic saline. Test compounds were administered p.o. at the time of challenge and 24 h and 48 h thereafter.

The values below come from patent US5736568A, “2-(aminoalkoxy) phenylalkylamines with antiinflammatory activity” (Knoll Aktiengesellschaft, priority 1994, dated 1998).

As usually defined, the IC50 is the point on the concentration scale where inhibition reaches its midpoint. Read a high IC50 as weaker potency in that assay. Regarding `CN(C)CCCOc1ccccc1CN(C)C` [Example 24, N,N-dimethyl-2-(3-dimethylaminopropoxy) benzylamine], inhibition in assay [1] was half-maximal at 50 µM (IC50).
A word on the inhibition: it is the percentage by which the read-out fell short of the control. The compound `CN(C)Cc1cc(O)ccc1OCCN(C)Cc1ccccc1` [Example 32, 4-[2-(N-benzyl-N-methylamino)ethoxy]-3-(dimethylaminomethyl)phenol] returned an inhibition at 100 mg/kg in assay [2] of 0%. Moreover, in assay [1], the half-inhibitory concentration (IC50) is 39 µM.
On the same counts, the results for `CN(C)Cc1cc(C(N)=O)ccc1OCCN(C)Cc1ccc(Cl)cc1` [Example 31, 4-{2-[N-(4-chlorobenzyl)-N-methylamino]ethoxy}-3-(dimethylaminomethyl)benzamide] are 19% and 39 µM.
`COC(=O)c1ccc(OCCN(C)Cc2ccccc2)c(CN(C)C)c1` [Example 26, methyl 4-[2-(N-benzyl-N-methylamino)ethoxy]-3-(dimethylaminomethyl) benzoate] returned an IC50 in assay [1] of 33 µM.
On to `CN(C)Cc1ccc(Cl)cc1OCCN(C)Cc1ccccc1` [Example 6, 2-[2-(N-Benzyl-N-methylamino)ethoxy]-4-chloro-N,N-dimethylbenzylamine], for which the “activity in Test C at 30 mg/kg” value in assay [3] (30 mg/kg p.o. at challenge) is “active”. 100 mg/kg produced 18% inhibition in assay [2]. The IC50 in assay [1] worked out at 15 µM.
With `CN(C)Cc1c(Cl)cccc1OCCN(C)Cc1ccccc1` [Example 1, 2-[2-(N-benzyl-N-methylamino)ethoxy]-6-chloro-N,N-dimethylbenzylamine], in assay [3], the “activity in Test C at 10 mg/kg or less” value is recorded as “active”. In assay [2], this compound gave an inhibition at 100 mg/kg of 70%. Besides, the IC50 in assay [1] was found to be 15 µM.
`CN(C)Cc1cc(Cl)ccc1OCCN(C)Cc1ccc(C#N)cc1` [Example 10, 4-{N-[2-(4-Chloro-2-dimethylaminomethylphenoxy)ethyl]-N-[methyl]aminomethyl}benzonitrile] displayed an IC50 in assay [1] of 47 µM.
`CN(C)Cc1cc(Cl)c(Cl)cc1OCCN(C)Cc1ccccc1` [Example 5, 2-[2-(N-Benzyl-N-methylamino)ethoxy]-4,5-dichloro-N,N-dimethylbenzylamine] registered an inhibition at 100 mg/kg in assay [2] of 6%. In addition, inhibition in assay [1] was half-maximal at 12 µM (IC50).
In assay [1], `COc1ccc(CN(C)C)c(OCCN(C)Cc2ccccc2)c1` [Example 18, 2-[2-(N-Benzyl-N-methylamino)ethoxy]-4-methoxy-N,N-dimethylbenzylamine] yielded an IC50 of 24 µM.
For `CN(C)Cc1cccc(Cl)c1OCCN(C)Cc1ccccc1` [Example 2, 2-[2-(N-Benzyl-N-methylamino)ethoxy]-3-chloro-N,N-dimethylbenzylamine], the IC50 in assay [1] was 65 µM.
For the compound `CN(C)Cc1c(Cl)cccc1OCCCN(C)Cc1ccccc1` [Example 35, 2-[3-(N-benzyl-N-methylamino)propoxy]-6-chloro-N,N-dimethylbenzylamine], in assay [3], the “activity in Test C at 10 mg/kg or less” value is on record as “active”. For the same compound, the IC50 in assay [1] was found to be 33 µM.
Regarding `COc1ccc(OCCN(C)Cc2ccccc2)c(CN)c1` [Example 27, 2-[2-(N-benzyl-N-methylamino)ethoxy]-5-methoxybenzylamine], the IC50 in assay [1] was determined as 34 µM.
On to `CN(C)Cc1cc(Cl)ccc1OCCN(C)Cc1ccc(C(N)=O)cc1` [Example 30, 4-{N-[2-(4-chloro-2-dimethylaminomethylphenoxy)ethyl]-N-[methyl]aminomethyl}benzamide], for which, in assay [1], the IC50 was 74 µM.
Consider `CN(C)Cc1cc(Cl)ccc1OCCNCc1ccccc1` [Example 9, 2-[2-(Benzylamino)ethoxy]-5-chloro-N,N-dimethylbenzyl-amine], for which the inhibition at 100 mg/kg in assay [2] was 56%. The same compound came in with an IC50 in assay [1] of 9 µM.
Turning to `CN(CCOc1ccc(Cl)cc1CN)Cc1ccccc1` [Example 28, 2-[2-(N-benzyl-N-methylamino)ethoxy]-5-chlorobenzylamine], in assay [1], the half-maximal inhibitory concentration (IC50) turned out to be 18 µM.
As to `CN(CCOc1cccc(Cl)c1CN)Cc1ccccc1` [Example 37, 2-[2-(N-benzyl-N-methylamino)ethoxy]-6-chlorobenzylamine], in assay [3], the “activity in Test C at 10 mg/kg or less” value is listed as “active”. This compound registered an IC50 in assay [1] of 12 µM.
The compound `CN(CCCOc1cccc(Cl)c1CN)Cc1ccccc1` [Example 29, 2-[3-(N-benzyl-N-methylamino)propoxy]-6-chlorobenzylamine] yielded an IC50 in assay [1] of 15 µM. In other words, the double-digit micromolar range.
In the case of `CN(C)Cc1cc(Cl)ccc1OCCN1CCCCC1` [Example 16, 5-Chloro-2-(2-piperidinoethoxy)-N,N-dimethylbenzylamine], in assay [1], half-maximal inhibition (IC50) was put at 26 µM.
`CN(C)Cc1cc(C(F)(F)F)ccc1OCCN(C)Cc1ccccc1` [Example 7, 2-[2-(N-Benzyl-N-methylamino)ethoxy]-N,N-dimethyl-5-trifluoromethylbenzylamine] had an inhibition at 100 mg/kg in assay [2] of 18%. In addition, it took 20 µM to reach half-maximal inhibition in assay [1] (IC50).
Turning to `CN(C)CCOc1ccccc1CN(C)C` [Example 23, 2-(2-dimethylaminoethoxy)-N,N-dimethylbenzylamine], the midpoint of inhibition in assay [1], the IC50, lay at 62 µM.
The compound `CN(C)Cc1cc(C#N)ccc1OCCN(C)Cc1ccccc1` [Example 4, 4-[2-(N-Benzyl-N-methylamino)ethoxy]-3-(dimethylaminomethyl)benzonitrile] gave a half-inhibitory concentration (IC50) in assay [1] of 60 µM.
With `CN(C)Cc1ccccc1OCCNC(C)(C)c1ccc(Cl)cc1` [Example 36, 2-[2-(4-chloro-α,α-dimethylbenzylamino)ethoxy]-N,N-dimethylbenzylamine], the “activity in Test C at 10 mg/kg or less” value in assay [3] is given as “active”. For the same compound, half-maximal inhibition in assay [1] (IC50) required 3 µM.
`CCN(CC)CCOc1ccccc1CN(C)C` [Example 19, 2-(2-diethylaminoethoxy)-N,N-dimethylbenzylamine]: in assay [1], it took 65 µM to reach half-maximal inhibition (IC50).
Compound `CCN(CC)CCOc1ccc(Cl)cc1CN(C)C` [Example 25] came in with an inhibition at 100 mg/kg in assay [2] of 22%. For the same compound, in assay [1], the half-maximal inhibitory concentration (IC50) amounted to 30 µM.
Turning to `CN(C)Cc1c(Cl)cccc1OCCN(C)Cc1ccccc1O` [Example 33, 2-{N-[2-(3-chloro-2-dimethylaminomethylphenoxy)ethyl]-N-[methyl]aminomethyl}phenol], the “activity in Test C at 10 mg/kg or less” value in assay [3] is “active”. This compound also displayed an IC50 in assay [1] of 16 µM.
On the same counts, the results for `CN(C)Cc1ccccc1OCCN(C)Cc1ccccc1Cl` [Example 14, 2-{2-[N-(2-Chlorobenzyl)-N-methylamino]ethoxy}-N,N-dimethylbenzylamine] are “active” and 45 µM.
In the case of `COc1ccc(OCCN(C)Cc2ccccc2)c(CN(C)C)c1` [Example 34, 2-[2-(N-benzyl-N-methylamino)ethoxy]-5-methoxy-N,N-dimethylbenzylamine], the IC50 in assay [1] was determined as 35 µM. This lies in the double-digit micromolar range.
